# ChEMBL document CHEMBL4118066, “QSAR-driven design, synthesis and discovery of potent chalcone derivatives with antitubercular activity” (Eur J Med Chem, 2017)
# Test system: Mycobacterium tuberculosis variant bovis
# Assay: microbe, parasite or virus in culture
# Type: functional
# Conditions: ATCC 35734, 168 h
row,SMILES,MIC90 [µM]
1,COc1ccc(/C=C/C(=O)c2cccc(Br)c2)cc1,9.38
2,COc1ccc(/C=C/C(=O)c2cccc(I)c2)cc1,9.47
3,COc1ccc(/C=C/C(=O)c2ccc(-c3ccccc3)cc2)cc1,> 10
4,CN(C)c1ccc(/C=C/C(=O)c2ccc(-c3ccccc3)cc2)cc1,> 10
5,O=C(/C=C/c1ccc([N+](=O)[O-])o1)c1ccc(N2CCCC2)cc1,2.18
6,CC(C)(C)c1ccc(C(=O)/C=C/c2ccc([N+](=O)[O-])s2)cc1,0.5
7,Cc1cccc(C(=O)/C=C/c2ccc([N+](=O)[O-])o2)c1,> 10
8,O=C(/C=C/c1ccc([N+](=O)[O-])cc1)c1ccc(N2CCCCC2)cc1,> 10
9,Cc1ccc(C(=O)/C=C/c2ccc([N+](=O)[O-])s2)cc1,0.98
10,O=C(/C=C/c1ccc([N+](=O)[O-])o1)c1ccc(I)cc1,2.57
11,O=C(/C=C/c1ccc([N+](=O)[O-])s1)c1ccc(C2CCCCC2)cc1,2.38
12,O=C(/C=C/c1ccc([N+](=O)[O-])s1)c1ccc(N2CCOCC2)cc1,9.12
13,CC(C)(C)c1ccc(C(=O)/C=C/c2ccco2)cc1,> 10
14,Cc1ccccc1C(=O)/C=C/c1ccc([N+](=O)[O-])o1,0.27
15,CSc1ccc(C(=O)/C=C/c2ccc([N+](=O)[O-])s2)cc1,0.56
16,O=C(/C=C/c1ccco1)c1ccc(N2CCCCC2)cc1,> 10
17,O=C(/C=C/c1ccc([N+](=O)[O-])o1)c1ccc(-c2ccccc2)cc1,0.59
18,O=C(/C=C/c1ccc([N+](=O)[O-])s1)c1ccc(-n2ccnc2)cc1,0.23
19,CSc1ccc(C(=O)/C=C/c2ccco2)cc1,> 10
20,CCCCc1ccc(C(=O)/C=C/c2ccc([N+](=O)[O-])s2)cc1,1.64
21,O=C(/C=C/c1cccc([N+](=O)[O-])c1)c1ccc(N2CCCCC2)cc1,> 10
22,CCCCc1ccc(C(=O)/C=C/c2ccc([N+](=O)[O-])o2)cc1,0.36
23,O=C(/C=C/c1ccc(Cl)s1)c1ccc(-n2ccnc2)cc1,9.52
24,O=C(/C=C/c1ccc([N+](=O)[O-])o1)c1cccc(Br)c1,0.18
25,CSc1ccc(C(=O)/C=C/c2ccc([N+](=O)[O-])o2)cc1,0.26
26,CC(C)(C)c1ccc(C(=O)/C=C/c2ccc[nH]2)cc1,> 10
